The values that follow come from article PMC5635289, “Differential Effects of Angelicin Analogues on NF-κB Activity and IL-8 Gene Expression in Cystic Fibrosis IB3-1 Cells” (Mediators of Inflammation, 2017).

Bounds are passed on as bounds.

The subject of one assay is IB3-1 cells. Description: Cell proliferation assay on IB3-1 cells. Format: cell-based. As to conditions: Homo sapiens, cell number/ml after 48 h of treatment. The protocol: Monolayers of 60% confluent IB3-1 cells were seeded in 24- or 12-well plates in LHC-8 medium in the presence of 5% FBS. After 24 h, TMA derivatives were added at serial dilutions and incubated for further 2-3 days. The effects of compounds (TMA derivatives) on the cell proliferation were analyzed as elsewhere described. A first analysis was performed with serial dilutions to obtain 50 μM, 200 μM, and 800 μM solutions. In order to determine IC50 values, the following concentrations were used 12.5, 25, 50, 100, 200, and 800 μM. In order to prepare the cells for counting, they were washed with PBS 1X and detached with trypsin/EDTA. Cells were suspended in physiological solution and counted with a Z2 Coulter Counter (Coulter Electronics, Hialeah, FL, USA). The cell number/ml was determined as IC50 after 2 days of culture, when untreated cells are in log phase of cell growth.
In order to obtain preliminary information on the biological properties of TMA derivatives, their effects on cell growth were examined on IB3-1 cell line, excellent biological model to study new potential anti-inflammatory molecules. The use of this cell line to study the expression of proinflammatory molecules under a variety of stimuli is well established. Monolayers of 60% confluent IB3-1 cells were seeded in 12-well plate in LHC-8 medium with 5% FBS. After 24 h, compounds were added at different concentrations and the cell number/ml was determined after further 48 h of culture.

Another assay concerns IL-8 mRNA. The assay is described as follows: RT-qPCR quantification of IL-8 mRNA in TNF-α-induced IB3-1 cells. The assay is classed as cell-based, human. Conditions: for inhibition at 1 µM / inhibition at 10 µM: Homo sapiens, IB3-1, 24 h, TNF-α-induced IB3-1 cells, RT-qPCR, na = not active at the used concentrations; for inhibition at 1 µM: 1 μM compound; for inhibition at 10 µM: 10 μM compound; for Inhibition of IL-8 expression (range given): IB3-1 cells, low concentrations (1–10 μM), concentration not specified per value. The protocol: Monolayers of 60% confluent IB3-1 cells were seeded in 6- or 12-well plates in LHC-8 medium in the presence of 5% FBS. After 24 h, pure derivatives were added, 5 h before stimulation with TNF-α 80 ng/ml (ORF Genetics, Kopavogur, Iceland), and incubated for a further 24 h. Total RNA was extracted using TRIzol Reagent (Sigma-Aldrich, St. Louis, MO) following the manufacturer's instructions. Reverse transcription (RT) was performed using Reverse Transcription System kit (Promega, Madison, WI): 1 μg of total RNA was reverse transcribed in the presence of 5 mM MgCl2, 1X reverse transcription buffer (10 mM Tris-HCl, 50 mM KCl, and 0.1% Triton X-100), 1 mM each dNTPs, 20 U recombinant Rnasin Ribonuclease Inhibitor, 15 U AMV Reverse Transcriptase, and 0.5 μg oligo(dT)15 primers in a total volume of 20 μl for 10 min at 70°C and 60 min at 42°C. The resulting cDNA was quantified by relative quantitative real-time PCR (real-time qPCR). For real-time qPCR, 1 μl of cDNA was used for each SYBR Green reaction to quantify the relative expression of IL-8. Each 25 μl of total reaction volume contained 1 μl of cDNA, 10 pmol of primers, 1 iQTM SYBR Green Supermix (Bio-Rad Laboratories Inc., Hercules, CA). Real-time PCRs were performed for a total of 40 cycles (denaturation, 95°C for 10 s; annealing, 68°C for 30 s for IL-8, 65°C for 30 s for IL-6; elongation, 72°C for 60 s) using an iCycler IQ5 (Bio-Rad Laboratories Inc., Hercules, CA). Primer sequences were as follows: IL-8 forward: 5′-GTGCAGTTTTGCCAAGGAGT-3′ and IL-8 reverse: 5′-TTATGAATTCTCAGCCCTCTTCAAAAACTTCTC-3′. The relative proportions of each amplified template were determined utilizing the threshold cycle (CT) value for each performed PCR. The DDCt method was used to compare gene expression data. Each sample was quantified in duplicate. Changes in mRNA expression level were calculated following normalization with the GAPDH calibrator gene (housekeeping gene) and expressed as fold change over untreated samples [24]. Duplicates of negative controls (no template cDNA) were also run with every experimental plate to assess specificity and indicate potential contamination.
With the aim to study the effective anti-inflammatory properties of these new psoralen derivatives, we decided to further characterize the TMA derivatives for their potential activities on the expression of IL-8 gene, known to be involved in the lung inflammatory process in CF. […] More specifically, we were first interested in identifying compounds with low antiproliferative activity, but effective in downmodulating inflammatory gene expression without achieving a full suppression of these genes. We therefore employed IB3-1 cystic fibrosis cells, incubated for 5 h with two concentrations (1 μM and 10 μM) of selected compounds, and then treated with TNF-α ([…]). In the IB3-1 cystic fibrosis cellular model, NF-κB-dependent genes, including the gene encoding for the proinflammatory protein IL-8, generally are activated following infection with P. aeruginosa or treatment with TNF-α or IL-1β [26, 28, 31]. This feature is very important in the pathophysiology of CF, since several clinical complications are caused by exacerbation of this inflammatory response. After 1 day of incubation, cellular RNA was isolated for RT-qPCR analysis. All the TMA analogues found to be active in inhibiting NF-κB/DNA interactions were analyzed for their effects on inhibition of TNF-α-induced accumulation of IL-8 mRNA.
(In general: In qPCR the cycle at which signal appears reflects the starting amount.)

Assay [1] addresses T1, NF-κB p50 (Homo sapiens, UniProt P19838).
T1 construct: This assay was performed using purified NF-κB p50; purchased Promega
T1 sequence (P19838 1-433 limits assumed): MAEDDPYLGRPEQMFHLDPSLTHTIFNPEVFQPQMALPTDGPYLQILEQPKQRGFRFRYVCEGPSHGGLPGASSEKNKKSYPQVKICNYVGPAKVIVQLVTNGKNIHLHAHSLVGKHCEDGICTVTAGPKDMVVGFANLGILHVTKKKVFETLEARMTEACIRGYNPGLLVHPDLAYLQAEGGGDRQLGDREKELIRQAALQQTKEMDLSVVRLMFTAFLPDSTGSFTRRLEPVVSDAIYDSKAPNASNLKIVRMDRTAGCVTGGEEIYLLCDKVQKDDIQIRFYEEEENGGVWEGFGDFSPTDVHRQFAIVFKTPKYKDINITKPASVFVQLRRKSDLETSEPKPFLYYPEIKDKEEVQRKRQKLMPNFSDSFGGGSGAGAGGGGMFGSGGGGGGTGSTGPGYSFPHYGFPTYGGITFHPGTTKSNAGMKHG
Description: EMSA, inhibition of NF-κB/DNA interactions. As to conditions: for Inhibition of NF-κB/DNA complex (MIC): NF-κB p50 and 32P-labeled NF-κB oligonucleotide, MIC = minimal inhibitory concentration, 12.5 μM was the lowest concentration used. Format: binding. The procedure: Electrophoretic mobility shift assays were performed using double-stranded ^32P-labeled oligonucleotides as target DNA. Binding reactions were set up as previously described in binding buffer (10% glycerol, 0.05% NP-40, 10 mM Tris-HCl pH 7.5, 50 mM NaCl, 0.5 mM DTT, and 10 mM MgCl2), in the presence of 0.1 μl/20 μl of NF-κB p50 (50 gsu) (Promega, Madison, WI, USA) and 0.25 ng of labeled oligonucleotide, in a total volume of 20 μl. After 30 min binding at room temperature, samples were electrophoresed at constant voltage (200 V for 30 min) through a low ionic strength (0.25 TBE buffer) (1 TBE/40.089 M Tris-borate, 0.002 M EDTA) on 6% polyacrylamide gels until the tracking dye (bromophenol blue) reached the bottom of a 16 cm slab. Gels were dried and exposed for autoradiography with intensifying screens at […]. In these experiments, DNA/protein complexes migrate through the gel with slower efficiency. In studies on the inhibitors of protein/DNA interactions, addition of the reagents was as follows: (i) nuclear factors, (ii) active principles, (iii) binding buffer, and (iv) labeled oligonucleotides mimicking the binding sites for TF to be modulated. The nucleotide sequence of double-stranded target DNA utilized in these experiments was 5′-CGC TGG GGA CTT TCC ACG G-3′ (sense strand, NF-κB). The synthetic oligonucleotides utilized in this study were purchased from Sigma Genosys (Sigma Genosys, Cambs, UK). To calculate the effective concentrations, three different autoradiograms obtained from different time exposures were scanned and compared to control EMSA performed without addition of angelicin analogues (two independent experiments were performed).
The effects of TMA derivatives on NF-κB- (nuclear factor-kappaB-) mediated induction of proinflammatory genes was verified first in vitro by electrophoretic mobility shift assay (EMSA) with the aim to verify and quantify the possible inhibition of NF-κB/DNA interactions. This assay was performed using purified NF-κB p50 and ^32P-labeled target NF-κB double-stranded oligonucleotide mimicking the NF-κB consensus sequence present within the IL-8 gene promoter.
On the technique in general: A gel shift assay detects complexes by their altered migration in electrophoresis.

The target in assay [2] is T1, NF-κB p50. More on the design: method as in PMID 21148790. As to conditions: previous studies; cited from earlier work.

As a reminder, the IC50 is the concentration that inhibits the measured activity by half. The low end stands for inhibition by little substance, the high end for a need for much substance. One may read the inhibition as the change of the read-out against control, counted positive when it falls. Read a high inhibition as a response far below the control.

Regarding `Cc1cc2c(o1)c1cc(C)oc1c1c(C)cc(=O)oc21` [Compound 30], the IC50 with IB3-1 cells was > 800 µM. Further, the inhibition at 1 µM with IL-8 mRNA worked out at 10%. The “Inhibition of NF-κB/DNA complex (MIC)” value on NF-κB p50 [1] was 12.5 to 25 µM.
In the assay with IB3-1 cells, `C=CCc1c(O)c(C)cc2c(CO)cc(=O)oc12` [Compound 38] registered an IC50 of 506 µM. Besides, in the assay on IL-8 mRNA, 1 µM produced 36% inhibition, the inhibition at 10 µM stood at 81% and the “Inhibition of IL-8 expression (range given)” value (“Inhibition of IL-8 expression” for short) is 52–83%. Moreover, on NF-κB p50 [1], the “Inhibition of NF-κB/DNA complex (MIC)” value was 25 µM.
Regarding `Cc1oc2c(cc(C)c3occ(C)c32)c(=O)c1C` [Compound 27], in the assay with IB3-1 cells, the IC50 is > 800 µM. The compound also yielded an inhibition at 1 µM with IL-8 mRNA of 16%. For the same compound, on NF-κB p50 [1], the “Inhibition of NF-κB/DNA complex (MIC)” value is listed as <12.5 (^∗) μM.
Consider `Cc1cc2c(C)cc3oc(=O)cc(C)c3c2o1` [Compound 33], for which the IC50 in the assay with IB3-1 cells was > 800 µM. In addition, in the assay with IL-8 mRNA, the inhibition at 1 µM came out at 66%, the inhibition at 10 µM was 67% and the “Inhibition of IL-8 expression” value was 52–83%. Also, at NF-κB p50 [1], the “Inhibition of NF-κB/DNA complex (MIC)” value lay within 12.5 to 25 µM.
With `Cc1coc2c1c(C)cc1oc(=O)cc(C)c12` [Compound 32], in the assay with IB3-1 cells, the concentration for half-maximal inhibition (IC50) was > 800 µM. Besides, in the assay on IL-8 mRNA, at 1 µM the inhibition was 73% and the inhibition at 10 µM stood at 52%. At NF-κB p50 [1], the “Inhibition of NF-κB/DNA complex (MIC)” value is reported as <12.5 (^∗) μM.
The like results for `O=c1cc(CO)c2ccc3sccc3c2o1` [Compound 16] were, in that order, > 800 µM, 18%, 21% and 25 to 50 µM.
With `Cc1cc2c(C)cc(=O)oc2c2c1OCC=C2` [Compound 35], in the assay with IB3-1 cells, the IC50 was 137 µM. In addition, in the assay on IL-8 mRNA, the inhibition at 1 µM is 56% and the inhibition at 10 µM is 37%. Moreover, the “Inhibition of NF-κB/DNA complex (MIC)” value on NF-κB p50 [1] was in the range of 25 to 50 µM.
`Cc1cc(=O)oc2c1cc(C)c1occ(CBr)c12` [Compound 5]: in the assay on IB3-1 cells, it took 486 µM to reach half-maximal inhibition (IC50). In the assay with IL-8 mRNA, this compound returned an inhibition at 1 µM of 33% and an inhibition at 10 µM of 31%. The “Inhibition of NF-κB/DNA complex (MIC)” value at NF-κB p50 [1] fell in the range of 12.5 to 25 µM.
Compound `Cc1cc2c(CO)cc(=O)oc2c2c(C)coc12` [Compound 8] gave an IC50 with IB3-1 cells of 398 µM. Further, in the assay on IL-8 mRNA, the inhibition at 1 µM was 51%, the inhibition at 10 µM was found to be 52% and the “Inhibition of IL-8 expression” value is reported as 52–83%. In addition, the “Inhibition of NF-κB/DNA complex (MIC)” value on NF-κB p50 [1] lay within 25 to 50 µM.
Regarding `Cc1cc(=O)oc2c1cc(C)c1occ(C)c12` [TMA, 4,6,4′-trimethylangelicin, reference compound], the “Concentration inhibiting NF-κB/DNA interactions in EMSA” value at NF-κB p50 [2] was 100 µM. Moreover, in the assay on IB3-1 cells, the IC50 was 185 ± 30 µM. Besides, on NF-κB p50 [1] (100 μM compound), the “Effect on NF-κB/DNA interactions at 100 μM” value is “able to suppress NF-κB/DNA interactions”. The “Inhibition of NF-κB/DNA complex (MIC)” value on NF-κB p50 [1] was “higher than 20 μM”.
In the case of `Cc1cc(=O)oc2c1cc(Cl)c1occ(C)c12` [Compound 12], the IC50 in the assay on IB3-1 cells is > 800 µM. In the assay on IL-8 mRNA, this compound registered an inhibition at 1 µM of 0%. On NF-κB p50 [1], the “Inhibition of NF-κB/DNA complex (MIC)” value was 12.5 µM.
In the assay with IB3-1 cells, `Cc1cc(=O)oc2c1ccc1oc(CN)cc12` [Compound 26] displayed an IC50 of 90.8 µM. For the same compound, in the assay with IL-8 mRNA, the inhibition at 1 µM is 55%, the inhibition at 10 µM came to 83% and the “Inhibition of IL-8 expression” value is listed as 52–83%. The “Inhibition of NF-κB/DNA complex (MIC)” value at NF-κB p50 [1] was in the range of 50 to 100 µM.
